# Laboratory results from patent publication US20250163104A1, “MACROCYCLIC IMMUNOMODULATORS” (priority 2021, published 2025).
# pIC50: −log10 of the molar value. *1 amine or outer side, *2 acyl side, *3 side chain or, on linkers, in order; H or OH if unused. Where a SMILES comes first, the peptide text is derived from it. Bridges are numbered along the chain shown (N, C = ends). [ ]: non-standard residue; d: D form. The star is where a group is joined. ξ: configuration not given here. Phe(3-CF3) = N[C@@H](Cc1cccc(C(F)(F)F)c1)C(=O)O; Ala(morpholin-4-yl) = N[C@@H](CN1CCOCC1)C(=O)O; Phe(4-COOH) = N[C@@H](Cc1ccc(C(=O)O)cc1)C(=O)O; X8 = O=C([C@H](Cc1ccc2ccncc2c1)N[*:1])[*:2]; Bip = N[C@@H](Cc1ccc(-c2ccccc2)cc1)C(=O)O; Phe(4-NH2) = Nc1ccc(C[C@H](N)C(=O)O)cc1; Phe(3-Me) = Cc1cccc(C[C@H](N)C(=O)O)c1; Phe(4-F) = N[C@@H](Cc1ccc(F)cc1)C(=O)O; Val(3-OH) = CC(C)(O)[C@H](N)C(=O)O; 4Pal = N[C@@H](Cc1ccncc1)C(=O)O; Cha = N[C@@H](CC1CCCCC1)C(=O)O; Cit = NC(=O)NCCC[C@H](N)C(=O)O; Thr(3ξ) = CC(O)[C@H](N)C(=O)O; dOrn = NCCC[C@@H](N)C(=O)O; Carboxymethyl = O=C(O)C*; Orn = NCCC[C@H](N)C(=O)O; Dab = NCC[C@H](N)C(=O)O; Dap = NC[C@H](N)C(=O)O; ξPra = C#CCC(N)C(=O)O
# Molecular target: T1, human PD-1 / PD-L1-Ig binding on Jurkat cell line over-expressing human PD-1 (Jurkat-PD-1) (Homo sapiens, UniProt Q15116)
# T1 construct: expressed in transfected cells; host or cells: Jurkat
# T1 sequence (Q15116 25-288): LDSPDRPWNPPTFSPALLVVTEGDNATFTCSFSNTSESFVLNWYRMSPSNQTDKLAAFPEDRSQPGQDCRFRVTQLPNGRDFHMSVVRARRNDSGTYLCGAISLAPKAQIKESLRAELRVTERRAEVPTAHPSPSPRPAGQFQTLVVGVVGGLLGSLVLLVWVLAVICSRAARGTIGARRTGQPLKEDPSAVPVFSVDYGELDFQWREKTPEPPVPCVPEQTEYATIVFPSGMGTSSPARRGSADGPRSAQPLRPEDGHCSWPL
# Test: Jurkat-PD-1 Cell Binding High-Content Screening Assay (CBA)
# Format: cell-based
# Details: Jurkat-PD-1 cells, PE-labeled PD-L1-Ig 20 nM final; read-out: Jurkat HPD1_PDL1 IC50
# Procedure, shortened: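 Jurkat cells over-expressing human PD-1, in DMEM/10% FCS, pre-incubated with compound 2 h at 37° C. PE-labeled human PD-L1-Ig (20 nM final) added for 1 h; cells fixed in paraformaldehyde with Hoechst 33342 nuclear stain, washed, and bound fluorescence quantified by high-content imaging.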
row,pIC50,Compound
1,8.23,Cc1cccc(C[C@@H]2NC(=O)[C@H](CC(=O)O)NC(=O)[C@H](Cc3ccc(OCC(=O)O)cc3)NC(=O)[C@H](CN)NC(=O)CSC[C@@H](C(=O)N[C@@H](CCC(=O)O)C(=O)O)NC(=O)[C@H]([C@@H](C)O)NC(=O)[C@H](C(C)C)NC(=O)[C@H](CC3CCCCC3)NC(=O)[C@H](CCN)NC(=O)[C@@H](CC(C)C)NC(=O)[C@H](CCCN)NC(=O)[C@H](CCCNC(N)=O)NC(=O)[C@H](Cc3ccc(-c4ccccc4)cc3)NC(=O)[C@H](C(C)C)NC2=O)c1 [Compound 1301] ({CH2CO}-[Dap]Y(Carboxymethyl)D[Phe(3-Me)]V[Bip][Cit][Orn][dL][Dab][Cha]VTCE-OH; thioether N-14)
2,7.74,CC(C)C[C@H]1NC(=O)[C@H](CCCN)NC(=O)[C@H](C(C)C)NC(=O)[C@H](Cc2ccc(-c3ccccc3)cc2)NC(=O)[C@H](C(C)C)NC(=O)[C@H](Cc2ccc(N)cc2)NC(=O)[C@H](CC(=O)O)NC(=O)[C@H](Cc2ccc(OCC(=O)O)cc2)NC(=O)[C@H](CN)NC(=O)CSC[C@@H](C(=O)N[C@@H](CCN)C(N)=O)NC(=O)[C@H](CCCCN)NC(=O)[C@H](C(C)C)NC(=O)[C@H](CC2CCCCC2)NC(=O)[C@H](CCN)NC1=O [Compound 2032] ({CH2CO}-[Dap]Y(Carboxymethyl)D[Phe(4-NH2)]V[Bip]V[Orn][dL][Dab][Cha]VKC[Dab]-NH2; thioether N-14)
3,6.11,CC(C)C[C@H]1NC(=O)[C@H](CCCN)NC(=O)[C@H](CCC(=O)O)NC(=O)[C@H](Cc2ccc(-c3ccccc3)cc2)NC(=O)[C@H](C(C)C)NC(=O)[C@H](Cc2ccc3ccncc3c2)NC(=O)[C@H](CC(=O)O)NC(=O)[C@H](Cc2ccc(OCC(=O)O)cc2)NC(=O)[C@H](CN)NC(=O)CSC[C@@H](C(=O)N[C@@H](C)C(N)=O)NC(=O)[C@H]([C@@H](C)O)NC(=O)[C@H](C(C)C)NC(=O)[C@H](CC2CCCCC2)NC(=O)[C@H](CCN)NC1=O [Compound 2144] ({CH2CO}-[Dap]Y(Carboxymethyl)D[X8]V[Bip]E[Orn][dL][Dab][Cha]VTCA-NH2; thioether N-14)
4,7.77,CC(C)C[C@H]1NC(=O)[C@H](CCCN)NC(=O)[C@H](CCC(=O)O)NC(=O)[C@H](Cc2ccc(-c3ccccc3)cc2)NC(=O)[C@H](C(C)C)NC(=O)[C@H](Cc2cccc(C(F)(F)F)c2)NC(=O)[C@H](CC(=O)O)NC(=O)[C@H](Cc2ccncc2)NC(=O)[C@H](Cc2ccc(OCC(=O)O)cc2)NC(=O)CSC[C@@H](C(=O)N[C@@H](C)C(N)=O)NC(=O)[C@H]([C@@H](C)O)NC(=O)[C@H](C(C)C)NC(=O)[C@H](CC2CCCCC2)NC(=O)[C@H](CCN)NC1=O [Compound 1462] ({CH2CO}-Y(Carboxymethyl)[4Pal]D[Phe(3-CF3)]V[Bip]E[Orn][dL][Dab][Cha]VTCA-NH2; thioether N-14)
5,7.75,COc1cccc(C[C@@H]2NC(=O)[C@H](CC(=O)O)NC(=O)[C@H](Cc3ccc(OCC(=O)O)cc3)NC(=O)[C@H](Cc3cccnc3)NC(=O)CSC[C@@H](C(=O)N[C@@H](C)C(N)=O)NC(=O)[C@H]([C@@H](C)O)NC(=O)[C@H](C(C)C)NC(=O)[C@H](CC3CCCCC3)NC(=O)[C@H](CCN)NC(=O)[C@@H](CC(C)C)NC(=O)[C@H](CCCN)NC(=O)[C@H](CCC(=O)O)NC(=O)[C@H](Cc3ccc(-c4ccccc4)cc3)NC(=O)[C@H](C(C)C)NC2=O)c1 [Compound 1545]
6,6.95,COc1cccc(C[C@@H]2NC(=O)[C@H](CC(=O)O)NC(=O)[C@H](Cc3ccc(OCC(=O)O)cc3)NC(=O)[C@H](CN)NC(=O)CSC[C@@H](C(=O)N[C@@H](C)C(N)=O)NC(=O)[C@H]([C@@H](C)O)NC(=O)[C@H](C(C)C)NC(=O)[C@H](CC3CCCCC3)NC(=O)[C@H](CCN)NC(=O)[C@@H](CC(C)C)NC(=O)[C@H](CCCN)NC(=O)[C@H](CCC(=O)O)NC(=O)[C@H](Cc3ccc(-c4ccccc4)cc3)NC(=O)[C@H](C(C)C)NC2=O)c1 [Compound 1467]
7,7.71,CC(C)C[C@@H]1NC(=O)[C@H](CCN)NC(=O)[C@@H](CC(C)C)NC(=O)[C@@H](CCCN)NC(=O)[C@H](C(C)C)NC(=O)[C@H](Cc2ccc(-c3ccccc3)cc2)NC(=O)[C@H](C(C)C)NC(=O)[C@H](Cc2c[nH]c3ccccc23)NC(=O)[C@H](CC(=O)O)NC(=O)[C@H](Cc2ccc(O)cc2)NC(=O)[C@H](CC(N)=O)NC(=O)CSC[C@@H](C(=O)N[C@@H](C)C(N)=O)NC(=O)[C@H]([C@@H](C)O)NC(=O)[C@H](C(C)C)NC1=O [Compound 1027] ({CH2CO}-NYDWV[Bip]V[dOrn][dL][Dab]LVTCA-NH2; thioether N-14)
8,8.22,Cc1cccc(C[C@@H]2NC(=O)[C@H](CC(=O)O)NC(=O)[C@H](Cc3ccc(F)cc3)NC(=O)[C@H](C(C)O)NC(=O)CSC[C@@H](C(=O)N[C@@H](CCN)C(N)=O)NC(=O)[C@H](C(C)O)NC(=O)[C@H](C(C)(C)O)NC(=O)[C@H](CC3CCCCC3)NC(=O)[C@H](CCN)NC(=O)[C@@H](CC(C)C)NC(=O)[C@H](CCCN)NC(=O)[C@H](Cc3ccc(C(=O)O)cc3)NC(=O)[C@H](Cc3ccc(-c4ccccc4)cc3)NC(=O)[C@H](Cc3ccc(C(=O)O)cc3)NC2=O)c1 (stereo partly drawn) [Compound 2685] ({CH2CO}-[Thr(3ξ)][Phe(4-F)]D[Phe(3-Me)][Phe(4-COOH)][Bip][Phe(4-COOH)][Orn][dL][Dab][Cha][Val(3-OH)][Thr(3ξ)]C[Dab]-NH2; thioether N-14)
9,6.46,Cc1cccc(C[C@@H]2NC(=O)[C@H](CC(N)=O)NC(=O)[C@H](Cc3ccc(C(=O)O)cc3)NC(=O)[C@H](CN3CCOCC3)NC(=O)CSC[C@@H](C(=O)N[C@@H](CCN)C(N)=O)NC(=O)[C@H](CCCN)NC(=O)[C@H](C(C)C)NC(=O)[C@H](CC3CCCCC3)NC(=O)[C@H](CCN)NC(=O)[C@@H](CC(C)C)NC(=O)[C@H](CCCN)NC(=O)[C@H](CCCN)NC(=O)[C@H](Cc3ccc(-c4ccccc4)cc3)NC(=O)[C@H](Cc3ccc(C(=O)O)cc3)NC2=O)c1 [Example 2727] ({CH2CO}-[Ala(morpholin-4-yl)][Phe(4-COOH)]N[Phe(3-Me)][Phe(4-COOH)][Bip][Orn][Orn][dL][Dab][Cha]V[Orn]C[Dab]-NH2; thioether N-14)
10,6.95,CC(C)C[C@@H]1NC(=O)[C@H](Cc2c[nH]c3ccccc23)NC(=O)[C@H](CC(=O)O)NC(=O)[C@H](Cc2ccc(O)cc2)NC(=O)[C@H](Cc2ccccc2)NC(=O)CSC[C@@H](C(=O)NCC(N)=O)NC(=O)[C@H]([C@@H](C)O)NC(=O)[C@H](C(C)C)NC(=O)[C@H](CC(C)C)NC(=O)[C@H](CCN)NC(=O)[C@@H](C)NC(=O)[C@H](CCN)NC(=O)[C@H](C(C)C)NC(=O)[C@H](Cc2ccc(-c3ccccc3)cc2)NC1=O [Compound 1103] ({CH2CO}-FYDWL[Bip]V[Dab][dA][Dab]LVTCG-NH2; thioether N-14)
11,7.78,C#CCC(NC(=O)[C@H](CCCCN)NC(=O)[C@@H]1CSCC(=O)N[C@@H](Cc2ccncc2)C(=O)N[C@@H](Cc2ccc(OCC(=O)O)cc2)C(=O)N[C@@H](CC(=O)O)C(=O)N[C@@H](Cc2c[nH]c3ccccc23)C(=O)N[C@@H](C(C)C)C(=O)N[C@@H](Cc2ccc(-c3ccccc3)cc2)C(=O)N[C@@H]([C@@H](C)CC)C(=O)N[C@@H](CCCN)C(=O)N[C@H](CC(C)C)C(=O)N[C@@H](CCN)C(=O)N[C@@H](CC(C)C)C(=O)N[C@@H](C(C)C)C(=O)N[C@@H]([C@@H](C)O)C(=O)N1)C(N)=O (stereo partly drawn) [Compound 1767] ({CH2CO}-[4Pal]Y(Carboxymethyl)DWV[Bip]I[Orn][dL][Dab]LVTCK[ξPra]-NH2; thioether N-14)
